Assay [1] deals with Tyrosine-protein kinase ABL1 (Homo sapiens), P00519 [E255K]. The settings on record: Compound concentration 1000.0 nM.
The subject of assay [2] is Tyrosine-protein kinase ABL1 (Homo sapiens), P00519 [F317I]. The following applies: Compound concentration 1000.0 nM.
Assay [3] addresses Activin receptor type-2A (Homo sapiens) (UniProt P27037). The following applies: Compound concentration 1000.0 nM.
Assay [4] has as its target Activin receptor type-1-like (Homo sapiens) (UniProt P37023). The following applies: Compound concentration 1000.0 nM.
Assay [5] addresses Calcium/calmodulin-dependent protein kinase type II subunit gamma (Homo sapiens) (UniProt Q13555). The following applies: Compound concentration 1000.0 nM.
For assay [6], the target named is Cyclin-dependent kinase 13 (Homo sapiens) (UniProt Q14004). The settings on record: Compound concentration 1000.0 nM.
For assay [7], the target named is Cyclin-dependent kinase 5 (Homo sapiens) (UniProt Q00535). The following applies: Compound concentration 1000.0 nM.
Sequence of Cyclin-dependent kinase 5 (Homo sapiens) (Q00535 whole entry, looked up, canonical isoform): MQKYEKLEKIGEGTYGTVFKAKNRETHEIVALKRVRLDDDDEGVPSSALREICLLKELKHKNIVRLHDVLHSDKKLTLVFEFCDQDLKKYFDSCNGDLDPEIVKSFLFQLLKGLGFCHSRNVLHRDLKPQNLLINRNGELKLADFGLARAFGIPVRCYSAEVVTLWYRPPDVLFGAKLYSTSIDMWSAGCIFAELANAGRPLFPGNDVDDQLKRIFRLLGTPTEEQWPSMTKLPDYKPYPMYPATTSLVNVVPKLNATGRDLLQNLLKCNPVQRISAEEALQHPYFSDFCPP
Assay [8] concerns the target Casein kinase I isoform alpha-like (Homo sapiens) (UniProt Q8N752). The following applies: Compound concentration 1000.0 nM.
The target in assay [9] is Megakaryocyte-associated tyrosine-protein kinase (Homo sapiens) (UniProt P42679). The settings on record: Compound concentration 1000.0 nM.
Sequence of Megakaryocyte-associated tyrosine-protein kinase (Homo sapiens) (P42679 whole entry): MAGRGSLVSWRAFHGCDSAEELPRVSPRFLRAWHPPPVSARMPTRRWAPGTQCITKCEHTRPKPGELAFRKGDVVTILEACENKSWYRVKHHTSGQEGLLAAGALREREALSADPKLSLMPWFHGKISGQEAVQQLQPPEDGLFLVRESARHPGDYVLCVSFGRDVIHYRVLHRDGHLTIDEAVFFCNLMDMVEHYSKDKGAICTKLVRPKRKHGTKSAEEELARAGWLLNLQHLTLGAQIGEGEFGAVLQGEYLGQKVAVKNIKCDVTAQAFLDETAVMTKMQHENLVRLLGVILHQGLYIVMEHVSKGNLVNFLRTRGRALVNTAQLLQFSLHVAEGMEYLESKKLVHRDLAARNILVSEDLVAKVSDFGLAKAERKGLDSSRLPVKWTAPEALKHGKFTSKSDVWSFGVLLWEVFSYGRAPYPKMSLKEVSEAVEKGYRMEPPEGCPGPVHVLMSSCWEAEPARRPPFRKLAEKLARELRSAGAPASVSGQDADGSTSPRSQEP
Assay [10] concerns Fibroblast growth factor receptor 3 (Homo sapiens), P22607 [G697C]. The following applies: Compound concentration 1000.0 nM.
Sequence of Fibroblast growth factor receptor 3 (Homo sapiens), P22607 [G697C] (P22607 whole entry G697C): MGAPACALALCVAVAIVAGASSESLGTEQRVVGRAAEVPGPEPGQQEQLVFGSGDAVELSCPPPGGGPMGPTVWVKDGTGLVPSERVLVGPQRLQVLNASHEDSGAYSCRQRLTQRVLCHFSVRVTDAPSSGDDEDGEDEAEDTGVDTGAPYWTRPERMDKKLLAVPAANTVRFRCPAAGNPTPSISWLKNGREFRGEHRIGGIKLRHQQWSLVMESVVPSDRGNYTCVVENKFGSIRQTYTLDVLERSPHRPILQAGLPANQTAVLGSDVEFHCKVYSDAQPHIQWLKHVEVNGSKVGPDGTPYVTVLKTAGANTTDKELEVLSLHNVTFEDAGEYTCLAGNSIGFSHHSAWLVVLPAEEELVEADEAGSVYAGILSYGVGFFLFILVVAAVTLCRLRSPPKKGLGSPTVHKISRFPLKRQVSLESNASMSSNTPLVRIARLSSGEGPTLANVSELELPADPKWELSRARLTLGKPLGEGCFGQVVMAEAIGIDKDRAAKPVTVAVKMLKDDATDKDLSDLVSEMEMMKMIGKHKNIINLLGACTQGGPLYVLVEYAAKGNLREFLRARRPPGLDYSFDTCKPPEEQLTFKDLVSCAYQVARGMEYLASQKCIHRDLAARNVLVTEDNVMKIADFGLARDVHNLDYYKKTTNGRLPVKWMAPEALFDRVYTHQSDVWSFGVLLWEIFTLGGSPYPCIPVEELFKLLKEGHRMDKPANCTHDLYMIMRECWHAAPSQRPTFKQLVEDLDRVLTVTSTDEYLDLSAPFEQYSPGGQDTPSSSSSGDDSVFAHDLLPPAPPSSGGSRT
In assay [11] the target is TGF-beta receptor type-2 (Homo sapiens) (UniProt P37173). The following applies: Compound concentration 1000.0 nM.
Sequence of TGF-beta receptor type-2 (Homo sapiens) (P37173 whole entry): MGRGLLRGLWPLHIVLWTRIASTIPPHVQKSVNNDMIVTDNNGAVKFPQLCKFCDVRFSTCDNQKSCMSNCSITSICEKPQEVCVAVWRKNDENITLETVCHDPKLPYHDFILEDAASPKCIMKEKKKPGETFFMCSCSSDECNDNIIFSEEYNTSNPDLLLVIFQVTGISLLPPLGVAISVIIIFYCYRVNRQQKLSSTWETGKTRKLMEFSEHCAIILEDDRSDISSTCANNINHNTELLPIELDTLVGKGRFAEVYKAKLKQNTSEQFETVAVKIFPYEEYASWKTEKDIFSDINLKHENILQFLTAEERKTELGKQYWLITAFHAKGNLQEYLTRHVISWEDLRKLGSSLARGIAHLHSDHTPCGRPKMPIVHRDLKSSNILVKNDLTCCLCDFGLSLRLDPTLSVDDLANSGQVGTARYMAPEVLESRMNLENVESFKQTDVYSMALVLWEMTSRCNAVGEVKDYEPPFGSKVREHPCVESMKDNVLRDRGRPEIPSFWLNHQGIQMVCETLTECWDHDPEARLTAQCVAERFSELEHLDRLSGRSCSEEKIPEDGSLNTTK
For assay [12], the target named is 5-hydroxytryptamine receptor 6 (Homo sapiens) (UniProt P50406). The settings on record: Compound concentration 10.0 uM.
Assay [13] addresses Alpha-2C adrenergic receptor (Homo sapiens) (UniProt P18825). The settings on record: Compound concentration 10.0 uM.
In assay [14] the target is Melanocortin receptor 3 (Homo sapiens) (UniProt P41968). Nature of the assay: Inhibition of Melanocortin MC3 at 10 µM in the Eurofins-Panlabs radioligand binding assay (Eurofins_assay_251300). More on the design: ligand concentration 0.035 nM. The following applies: Compound concentration 10.0 uM.
Assay [15] addresses Histamine H3 receptor (Homo sapiens) (UniProt Q9Y5N1). Nature of the assay: Histamine H3 Eurofins-Panlabs radioligand binding assay. The settings on record: Compound concentration 10.0 uM.
The target of assay [16] is Insulin receptor (Homo sapiens) (UniProt P06213). Kind of assay: Protein Tyrosine Kinase, Insulin Receptor Eurofins-Panlabs enzyme assay. Also noted: substrate with concentration 10 µg/mL […], incubation time 60 min, incubation temperature 25 °C. The settings on record: Compound concentration 10.0 uM.
In assay [17] the target is T1, Tyrosine-protein phosphatase non-receptor type 2 (Homo sapiens) (UniProt P17706).
T1 sequence (whole entry): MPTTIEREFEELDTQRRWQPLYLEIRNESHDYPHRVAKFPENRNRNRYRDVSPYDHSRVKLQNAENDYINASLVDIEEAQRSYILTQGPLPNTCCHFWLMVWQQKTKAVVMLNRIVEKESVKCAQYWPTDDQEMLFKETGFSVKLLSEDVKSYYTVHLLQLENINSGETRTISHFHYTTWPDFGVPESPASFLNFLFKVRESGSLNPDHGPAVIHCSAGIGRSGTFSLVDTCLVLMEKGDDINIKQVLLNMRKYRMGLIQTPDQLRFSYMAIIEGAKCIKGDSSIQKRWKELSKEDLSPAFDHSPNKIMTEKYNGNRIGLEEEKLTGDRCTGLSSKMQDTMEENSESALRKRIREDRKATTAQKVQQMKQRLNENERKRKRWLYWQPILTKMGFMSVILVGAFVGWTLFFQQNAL
Nature of the assay: (§1) Protein Tyrosine Phosphatase, PTPN2 (TCPTP) Eurofins-Panlabs enzyme assay. Also noted: substrate with concentration DiFMUP, incubation time 60 min, incubation temperature 37 °C.

Assay [18] deals with Tyrosine-protein phosphatase non-receptor type 2 (Homo sapiens, UniProt P17706). Described as §1. Also noted: substrate with concentration DiFMUP, incubation time 60 min, incubation temperature 37 °C.
The species named for assay [19] is Rattus norvegicus. Nature of the assay: Adrenergic α2, Non-selective Eurofins-Panlabs radioligand binding assay. The assay is classed as protein assay. The following applies: Compound concentration 10.0 uM.
In assay [20] the target is Type-2 angiotensin II receptor (Homo sapiens) (UniProt P50052). Nature of the assay: Angiotensin AT2 Eurofins-Panlabs radioligand binding assay. The assay is classed as protein assay. The settings on record: Compound concentration 10.0 uM.
For assay [21], the target named is Prostaglandin E2 receptor EP4 subtype (Homo sapiens) (UniProt P35408). Nature of the assay: Prostanoid EP4 Eurofins-Panlabs radioligand binding assay. More on the design: ligand concentration 0.5 nM. The following applies: Compound concentration 10.0 uM.
In assay [22] the target is Prostaglandin F2-alpha receptor (Homo sapiens) (UniProt P43088). Kind of assay: Prostanoid FP Eurofins-Panlabs radioligand binding assay. Also noted: ligand concentration 0.95 nM. The settings on record: Compound concentration 10.0 uM.
Assay [23] deals with Prostacyclin receptor (Homo sapiens) (UniProt P43119). Kind of assay: Prostanoid IP Eurofins-Panlabs radioligand binding assay. More on the design: ligand concentration 5 nM. The following applies: Compound concentration 10.0 uM.
Assay [24] addresses Somatostatin receptor type 2 (Homo sapiens) (UniProt P30874). Kind of assay: Somatostatin sst2 Eurofins-Panlabs radioligand binding assay. Also noted: ligand concentration 0.1 nM. The settings on record: Compound concentration 10.0 uM.
For assay [25], the target named is Somatostatin receptor type 3 (Homo sapiens) (UniProt P32745). Nature of the assay: Somatostatin sst3 Eurofins-Panlabs radioligand binding assay. The following applies: Compound concentration 10.0 uM.
For assay [26], the target named is Somatostatin receptor type 4 (Homo sapiens) (UniProt P31391). Nature of the assay: Somatostatin sst4 Eurofins-Panlabs radioligand binding assay. More on the design: ligand concentration 0.1 nM, non-specific ligand with concentration 1 µM Somatostatin-14, incubation time 45 min, incubation temperature 25 °C. The settings on record: Compound concentration 10.0 uM.

For assay [27], the target named is Glutamate (NMDA/AMPA/Kainate) (Rattus norvegicus) (UniProt P35439+Q00959+Q00960+Q00961+Q62645+Q8VHN2+Q9R1M7+P22756+Q9ULK0+Q01812+P19491+P19492+P19493+P42260+P42264+P19490+Q63273+O43424). Kind of assay: Glutamate, Non-Selective Eurofins-Panlabs radioligand binding assay. The assay is classed as protein-complex assay. Also noted: ligand concentration 3.75 nM. The settings on record: Compound concentration 10.0 uM.

The species entered for assay [28] is Rattus norvegicus. Nature of the assay: Potassium Channel [KA] Eurofins-Panlabs radioligand binding assay. The settings on record: Compound concentration 10.0 uM. More on the design: ligand concentration 0.01 nM.
Assay [29] has as its target Muscarinic acetylcholine receptor M3 (Homo sapiens) (UniProt P20309). The following applies: Compound concentration 10.0 uM.
Assay [30] addresses D(3) dopamine receptor (Homo sapiens) (UniProt P35462). The settings on record: Compound concentration 10.0 uM.
Assay [31] addresses Endothelin receptor type B (Homo sapiens) (UniProt P24530). The following applies: Compound concentration 10.0 uM.
Assay [32] concerns the target T2, Muscarinic acetylcholine receptor M4 (Homo sapiens) (UniProt P08173).
T2 sequence (whole entry): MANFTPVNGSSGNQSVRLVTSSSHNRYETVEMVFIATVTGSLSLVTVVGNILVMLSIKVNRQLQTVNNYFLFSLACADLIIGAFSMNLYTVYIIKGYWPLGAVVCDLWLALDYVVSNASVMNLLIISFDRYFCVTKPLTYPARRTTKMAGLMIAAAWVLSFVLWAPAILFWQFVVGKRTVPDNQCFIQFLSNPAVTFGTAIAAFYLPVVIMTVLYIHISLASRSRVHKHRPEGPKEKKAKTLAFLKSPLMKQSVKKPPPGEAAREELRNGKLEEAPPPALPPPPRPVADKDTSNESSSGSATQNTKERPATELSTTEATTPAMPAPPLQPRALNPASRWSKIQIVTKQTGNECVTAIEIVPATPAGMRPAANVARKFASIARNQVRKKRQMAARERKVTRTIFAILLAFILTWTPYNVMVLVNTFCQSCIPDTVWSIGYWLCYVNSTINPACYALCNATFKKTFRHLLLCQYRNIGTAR
The settings on record: Compound concentration 10.0 uM.

Sequence of Activin receptor type-2A (Homo sapiens) (P27037 whole entry): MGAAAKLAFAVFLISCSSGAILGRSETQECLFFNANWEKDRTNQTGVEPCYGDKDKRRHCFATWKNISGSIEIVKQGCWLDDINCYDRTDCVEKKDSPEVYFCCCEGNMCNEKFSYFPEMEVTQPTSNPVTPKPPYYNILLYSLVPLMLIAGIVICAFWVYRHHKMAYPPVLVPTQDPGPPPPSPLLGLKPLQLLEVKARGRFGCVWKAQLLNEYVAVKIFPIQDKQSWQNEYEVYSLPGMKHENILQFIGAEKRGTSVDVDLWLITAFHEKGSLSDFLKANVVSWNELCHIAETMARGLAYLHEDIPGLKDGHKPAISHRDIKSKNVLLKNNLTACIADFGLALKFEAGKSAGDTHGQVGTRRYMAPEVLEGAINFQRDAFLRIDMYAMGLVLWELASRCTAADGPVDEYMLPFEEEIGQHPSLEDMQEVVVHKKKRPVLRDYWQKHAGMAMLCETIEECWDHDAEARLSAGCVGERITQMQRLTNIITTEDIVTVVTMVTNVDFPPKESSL
Sequence of Tyrosine-protein kinase ABL1 (Homo sapiens), P00519 [F317I] (P00519 whole entry F317I): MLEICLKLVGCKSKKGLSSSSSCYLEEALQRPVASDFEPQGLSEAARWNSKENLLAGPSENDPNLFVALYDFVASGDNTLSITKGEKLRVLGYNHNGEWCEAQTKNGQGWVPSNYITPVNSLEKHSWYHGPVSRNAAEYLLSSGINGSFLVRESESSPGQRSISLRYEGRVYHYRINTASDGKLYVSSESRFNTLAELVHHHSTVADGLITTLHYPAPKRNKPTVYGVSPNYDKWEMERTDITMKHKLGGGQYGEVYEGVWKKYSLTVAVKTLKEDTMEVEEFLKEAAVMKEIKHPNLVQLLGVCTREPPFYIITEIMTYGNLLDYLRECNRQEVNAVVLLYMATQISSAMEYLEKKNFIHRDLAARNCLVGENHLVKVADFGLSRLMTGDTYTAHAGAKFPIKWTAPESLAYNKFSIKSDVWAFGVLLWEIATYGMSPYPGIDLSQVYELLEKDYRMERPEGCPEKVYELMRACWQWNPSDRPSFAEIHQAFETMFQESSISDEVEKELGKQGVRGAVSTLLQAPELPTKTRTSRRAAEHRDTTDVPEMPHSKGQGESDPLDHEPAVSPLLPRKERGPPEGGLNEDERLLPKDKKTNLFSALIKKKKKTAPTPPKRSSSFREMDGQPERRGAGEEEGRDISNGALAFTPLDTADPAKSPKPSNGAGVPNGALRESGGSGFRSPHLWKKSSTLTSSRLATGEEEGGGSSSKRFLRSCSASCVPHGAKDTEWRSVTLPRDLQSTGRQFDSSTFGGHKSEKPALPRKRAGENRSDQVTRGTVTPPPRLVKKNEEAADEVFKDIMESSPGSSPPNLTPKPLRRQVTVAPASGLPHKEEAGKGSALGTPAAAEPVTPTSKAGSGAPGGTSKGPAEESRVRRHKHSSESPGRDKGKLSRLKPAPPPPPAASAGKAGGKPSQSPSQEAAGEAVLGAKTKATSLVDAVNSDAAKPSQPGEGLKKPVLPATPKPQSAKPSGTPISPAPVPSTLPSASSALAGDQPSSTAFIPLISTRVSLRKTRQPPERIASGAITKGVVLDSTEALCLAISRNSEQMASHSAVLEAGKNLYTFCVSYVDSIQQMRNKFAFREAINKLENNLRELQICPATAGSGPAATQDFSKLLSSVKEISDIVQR
Sequence of Casein kinase I isoform alpha-like (Homo sapiens) (Q8N752 whole entry, canonical isoform): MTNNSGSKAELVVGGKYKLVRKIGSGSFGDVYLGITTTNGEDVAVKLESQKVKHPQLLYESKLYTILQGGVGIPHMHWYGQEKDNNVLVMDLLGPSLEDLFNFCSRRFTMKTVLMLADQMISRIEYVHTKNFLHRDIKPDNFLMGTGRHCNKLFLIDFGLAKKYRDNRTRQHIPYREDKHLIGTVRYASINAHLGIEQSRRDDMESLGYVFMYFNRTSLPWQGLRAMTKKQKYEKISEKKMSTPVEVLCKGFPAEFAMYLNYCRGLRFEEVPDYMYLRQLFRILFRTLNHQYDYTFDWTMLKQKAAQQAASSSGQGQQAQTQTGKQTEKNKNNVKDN
Sequence of Tyrosine-protein kinase ABL1 (Homo sapiens), P00519 [E255K] (P00519 whole entry E255K): as the sequence (P00519 whole entry F317I) above, with E255K, I317F counted along it
Sequence of Calcium/calmodulin-dependent protein kinase type II subunit gamma (Homo sapiens) (Q13555 whole entry): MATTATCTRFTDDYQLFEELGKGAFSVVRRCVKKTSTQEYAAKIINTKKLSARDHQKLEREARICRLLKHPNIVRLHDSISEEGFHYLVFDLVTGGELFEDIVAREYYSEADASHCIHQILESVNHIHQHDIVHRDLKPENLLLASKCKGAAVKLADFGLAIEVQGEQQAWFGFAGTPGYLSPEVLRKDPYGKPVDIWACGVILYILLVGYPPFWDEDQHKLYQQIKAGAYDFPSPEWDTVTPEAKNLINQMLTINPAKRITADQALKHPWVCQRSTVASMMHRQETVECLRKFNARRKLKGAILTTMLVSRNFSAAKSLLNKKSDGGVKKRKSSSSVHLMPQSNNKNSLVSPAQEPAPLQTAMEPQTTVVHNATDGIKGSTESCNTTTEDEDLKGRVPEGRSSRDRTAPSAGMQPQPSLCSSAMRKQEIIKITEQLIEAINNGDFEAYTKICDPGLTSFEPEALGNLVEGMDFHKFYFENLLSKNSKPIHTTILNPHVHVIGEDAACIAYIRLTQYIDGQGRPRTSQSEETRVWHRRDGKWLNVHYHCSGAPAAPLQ

Take `N#CC1(c2ccccn2)CCN(Cc2cc(C(=O)N3CCCC3)c(=O)n3ccccc23)CC1`: the residual activity in assay [1] was 87%; in assay [2], 87%; in assay [3], 78%; in assay [4], 100%; in assay [5] it was 100%; in [6], 100%. In addition, the residual activity in assay [7] was 92%; in [8], 91%; in assay [9], 76%; in [10] it was 98%; in assay [11], 93%. The inhibition was 2.79% in assay [12] and 1.13% in [13].
In the case of `N#CC1(c2ccccn2)CCN(Cc2cc(C(=O)O)c(=O)n3ccccc23)CC1` [MSD-M1PAM], the inhibition was 1% in assay [14]; -9% in [15]; 1% in assay [16]; -4% in assay [17] (Compound concentration 0.01 uM); -5% in assay [17] (Compound concentration 0.1 uM); 4% in [17] (Compound concentration 1.0 uM). In addition, the inhibition is 50% in assay [17] (Compound concentration 10.0 uM); -7% in [19]; -2% in assay [20]; -4% in [21]; 12% in assay [22]; 22% in assay [23]. For the same compound, the inhibition in [24] was 12%; in assay [25] it was 2%; in assay [26], -1%; in [27], 8%; in assay [28], 17%; in [29] it was -6.58%. For the same compound, the inhibition is -9% in assay [30], -10% in assay [31] and 0% in assay [32]. For the same compound, the IC50 in assay [18] was 10 µM. The residual activity is 100% in assay [1]; 65% in assay [2]; 95% in assay [3]; 95% in [4]; 100% in assay [5]; 98% in assay [6]. Moreover, the residual activity in [7] is 100%; in assay [8], 100%; in assay [9] it was 84%; in assay [10], 100%; in assay [11] it was 93%.

By residual activity is commonly meant the activity still measured, relative to the control. By inhibition is commonly meant the relative decrease from the control value, in per cent. As a reminder, the IC50 is the concentration at which inhibition is half-maximal. The low end stands for greater potency, the high end for weaker potency.

(Values after ChEMBL document CHEMBL4507295 (2021).)
